Measurements taken from paper PMC6572293, “Antihypertensive Effects of Corn Silk Extract and Its Novel Bioactive Constituent in Spontaneously Hypertensive Rats: The Involvement of Angiotensin-Converting Enzyme Inhibition” (Molecules, 2019).
Read-outs that look alike come from different tables or passages of the source. Peptide text beside a SMILES is read from it.

Legend:
ACE (serum) [1] = target: T1, ACE (serum) (Mus musculus, UniProt P09470); assay: ACE activity assay, H-HL substrate; assay type: biochemical, mouse (BALB/c serum)
T1 construct: Mouse sera collected from normal BALB/c mice were used as the source of soluble somatic ACE; from tissue; host or cells: serum of normal BALB/c mice
T1 sequence (P09470 35-1237 limits assumed): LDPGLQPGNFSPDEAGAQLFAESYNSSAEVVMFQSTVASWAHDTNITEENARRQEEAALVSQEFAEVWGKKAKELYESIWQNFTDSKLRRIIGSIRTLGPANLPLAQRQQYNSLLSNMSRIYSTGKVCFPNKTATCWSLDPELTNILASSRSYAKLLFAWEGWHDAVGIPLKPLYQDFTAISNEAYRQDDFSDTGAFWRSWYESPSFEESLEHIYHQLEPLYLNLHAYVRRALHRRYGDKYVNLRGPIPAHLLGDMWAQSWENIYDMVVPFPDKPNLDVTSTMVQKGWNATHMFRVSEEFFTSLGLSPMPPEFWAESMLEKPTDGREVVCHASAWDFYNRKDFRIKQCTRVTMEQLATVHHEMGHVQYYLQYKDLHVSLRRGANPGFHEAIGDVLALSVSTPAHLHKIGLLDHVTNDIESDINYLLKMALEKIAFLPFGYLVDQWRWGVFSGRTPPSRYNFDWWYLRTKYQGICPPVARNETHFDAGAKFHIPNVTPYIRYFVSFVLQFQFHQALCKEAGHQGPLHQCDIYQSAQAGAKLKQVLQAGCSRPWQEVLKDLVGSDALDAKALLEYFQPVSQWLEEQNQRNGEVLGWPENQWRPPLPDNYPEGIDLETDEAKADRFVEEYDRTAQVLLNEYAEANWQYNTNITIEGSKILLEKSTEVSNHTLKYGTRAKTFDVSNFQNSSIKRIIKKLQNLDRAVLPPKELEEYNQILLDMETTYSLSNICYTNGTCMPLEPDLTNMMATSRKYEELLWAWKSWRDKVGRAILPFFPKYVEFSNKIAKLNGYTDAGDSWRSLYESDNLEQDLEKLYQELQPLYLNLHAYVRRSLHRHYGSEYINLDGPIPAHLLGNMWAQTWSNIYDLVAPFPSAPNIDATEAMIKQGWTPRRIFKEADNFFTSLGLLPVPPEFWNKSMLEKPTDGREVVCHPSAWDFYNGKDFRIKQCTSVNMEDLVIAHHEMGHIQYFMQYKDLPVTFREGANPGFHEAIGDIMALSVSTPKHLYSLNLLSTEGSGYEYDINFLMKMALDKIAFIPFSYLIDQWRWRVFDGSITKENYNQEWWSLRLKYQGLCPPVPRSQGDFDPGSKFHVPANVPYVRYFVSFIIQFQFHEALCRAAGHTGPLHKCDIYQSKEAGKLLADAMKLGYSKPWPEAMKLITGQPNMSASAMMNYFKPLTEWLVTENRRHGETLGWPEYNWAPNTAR
Method: (§1) Various amounts of CSBp5 were mixed with mouse sera in the presence of H-HL or Z-FHL substrate, and the ACE activity was determined by measuring the fluorescence-labeled hydrolyzed substrates.
(§2) ACE activity assay was performed as described previously with a slight modification. Mouse sera collected from normal BALB/c mice were used as the source of soluble somatic ACE. ACE activity in mouse serum was determined as described previously. […] To correct the intrinsic fluorescence of mouse serum, blank was performed according to the aforementioned procedures without inhibitors.

[2] = test system: spontaneously hypertensive rats (SHRs); assay: Tail-cuff systolic blood pressure in spontaneously hypertensive rats; assay type: in vivo, rat (male SHR); details: SHR; for Decrease of SBP, intraperitoneal: 1 h after injection
Method: Male SHRs (200–250 g, 10 week-old) were purchased from National Laboratory Animal Center (Taipei, Taiwan). Rats were maintained under a 12 h day/12 h night cycle and had free access to water and food. Rat experiments were conducted under ethics approval from China Medical University Animal Care and Use Committee (Permit No. 104-75-N). SHRs with tail SBP ≥ 180 mmHg were randomly divided into five groups with six rats per group. Rats were given intraperitoneally or orally with 400 μL of distilled water (blank), captopril (Catalog No. C4042), or various dosages of CSE or peptide (dissolved in water). SBP was measured by a tail-cuff apparatus (Non-Invasive Blood Pressure System, Panlab, Barcelona, Spain). Rats were placed in a warm holder kept at 37 ± 1 °C for 10 min before the measurement. Changes in SBP were calculated by subtracting SBP at indicated time point from SBP at 0 h.

SHRs [3] = assay: Tail diastolic blood pressure in spontaneously hypertensive rats; assay type: in vivo, rat (male SHR); details: SHR, oral, various dosages of CSBp5, 0 and 1 h; n = 6
Method: Male SHRs (200–250 g, 10 week-old) were purchased from National Laboratory Animal Center (Taipei, Taiwan). Rats were maintained under a 12 h day/12 h night cycle and had free access to water and food. Rat experiments were conducted under ethics approval from China Medical University Animal Care and Use Committee (Permit No. 104-75-N).
SHRs with tail SBP ≥ 180 mmHg were randomly divided into five groups with six rats per group. Rats were given intraperitoneally or orally with 400 μL of distilled water (blank), captopril (Catalog No. C4042), or various dosages of CSE or peptide (dissolved in water). SBP was measured by a tail-cuff apparatus (Non-Invasive Blood Pressure System, Panlab, Barcelona, Spain). Rats were placed in a warm holder kept at 37 ± 1 °C for 10 min before the measurement. Changes in SBP were calculated by subtracting SBP at indicated time point from SBP at 0 h.
Antihypertensive Effects of Corn Silk Extract and
Its Novel Bioactive Constituent in Spontaneously
Hypertensive Rats: The Involvement of
Angiotensin-Converting Enzyme Inhibition
Chia-Cheng Li 1, Yu-Chen Lee 2,3, Hsin-Yi Lo 1, Yu-Wen Huang 4, Chien-Yun Hsiang 5,* and […]
μmol/kg captopril or various dosages of CSBp5. Tail diastolic blood pressure was measured
at 0 and 1 h. Data are expressed as diastolic blood pressure (mmHg) (top panel) or changes in […]

ACE (serum) [4] = target: T1, ACE (serum); assay: ACE activity assay, Z-FHL substrate; assay type: biochemical, mouse (BALB/c serum); details: various concentrations
Method: as §1, §2

ACE N-domain = ACE N-domain selective inhibitor; cited from earlier work
From the text: Somatic ACE is composed of two similar catalytic domains (N- and C-domains).

[5] = test system: healthy human subjects and animals; details: exogenously administered angiotensin I, no reference given; cited from earlier work
From the text: CSE was a protein-rich extract and the protein content of CSE was 10.86%. Moreover, the well-known ACE inhibitors are amino acid or dipeptide drugs. Therefore, we proposed that there were bioactive peptides responsible for the anti-hypertensive activities of CSE. Proteomics and bioinformatics analyses were further applied to identify the anti-hypertensive bioactive peptides in CSE. Peptides with anti-hypertensive potentials have been determined from corn. For example, dipeptide Ala-Tyr (AY) has been identified from corn gluten meal, a major byproduct of corn wet milling. AY affects the ACE act ...

ACE = details: cited from earlier work
From the text: (§3) Food peptides with anti-ACE activities have been identified from plants and animals. For example, oligopeptides FDGIP and AIDPVRA are ACE inhibitor derived from Caulerpa lentillifera. […] Peptides from auto-digested reishi (Ganoderma lingzhi) extract show potent inhibition against ACE and hypotensive activities in SHRs. Lacto-tr ... || CSE was a protein-rich extract and the protein content of CSE was 10.86%. Moreover, the well-known ACE inhibitors are amino acid or dipeptide drugs. Therefore, we proposed that there were bioactive peptides responsible for the anti-hypertensive activities of CSE. Proteomics and bioinformatics analyses were further applied to identify the anti-hypertensive bioactive peptides in CSE. Peptides with anti-hypertensive potentials have been determined from corn. For example, dipeptide Ala-Tyr (AY) has been identified from corn gluten meal, a major byproduct of corn wet milling. AY affects the ACE act ...

SHRs [6] = details: SHR, cited from earlier work
From the text: as §3

[7] = from Coix glutelin; cited from earlier work
From the text: (§4) Food peptides with anti-ACE activities have been identified from plants and animals. For example, oligopeptides FDGIP and AIDPVRA are ACE inhibitor derived from Caulerpa lentillifera. […] Peptides from auto-digested reishi (Ganoderma lingzhi) extract show potent inhibition against ACE and hypotensive activities in SHRs. Lacto-tr ...

endothelial function = details: in vitro; cited from earlier work
From the text: as §4

[8] = test system: subjects with blood pressure ranging from normal to mild hypertension; details: intake of tablets containing VPP and IPP; cited from earlier work
From the text: as §4

[9] = intraperitoneal, 10 μmol/kg, tail-cuff, mean ± standard error, n = 6

In the case of CC(C)C[C@H](NC(=O)[C@H](CC(N)=O)NC(=O)[C@H](CC(=O)O)NC(=O)[C@H](Cc1ccccc1)NC(=O)[C@H](CCCCN)NC(=O)[C@@H](N)CO)C(=O)N[C@@H](Cc1ccc(O)cc1)C(=O)NCC(=O)N[C@@H](CS)C(=O)N[C@@H](CCCNC(=N)N)C(=O)O [CSBp5] (H-SKFDNLYGCR-OH; N-terminus and C-terminus assumed), the “Domain preference of ACE inhibition (in words)” value (ACE (serum) [1]; H-HL versus Z-FHL hydrolysis) is reported as “a more effective inhibition on the C-domain of ACE”, the “Inhibition of ACE activity, H-HL (in words)” value (ACE (serum) [1]; mouse serum ACE, H-HL, various concentrations) is reported as “inhibited the ACE activity and the inhibition displayed a dose-dependent manner” and the “Decrease of SBP, intraperitoneal” value [2, 9] is reported as 28.33 ± 12.5 mmHg. The “Decrease of SBP, intraperitoneal (in words)” value ([2]; intraperitoneal, various dosages, 1 h) was “decreased SBP levels in a dose-dependent manner”, the “Decrease of SBP, oral” value ([2]; oral, 10 μmol/kg, 1 h, tail-cuff, mean ± standard error, n = 6) was 36.78 ± 13.25 mmHg and the “Decrease of SBP at 2 h (time course)” value ([2]; oral, 10 μmol/kg) was roughly 30 mmHg. The “Duration of SBP decrease (in words)” value ([2]; oral, 10 μmol/kg, measured at 0, 1, 2, 4 and 6 h) was “persistent during a 6-h measurement”, the “Decrease of SBP, oral (in words)” value ([2]; oral, various dosages, 1 h) was “decreased the SBP levels in a dose-dependent manner” and the “Changes in diastolic blood pressure (in words)” value (SHRs [3]) was “consistent with the changes in SBP”. For the same molecule, the “Inhibition of ACE activity, Z-FHL (in words)” value (ACE (serum) [4]) was “inhibited the ACE activity and the inhibition displayed a dose-dependent manner”.

For CC(=O)N[C@@H](CC(=O)O)C(=O)N[C@@H](Cc1ccccc1)P(=O)(O)C[C@@H](C)C(=O)N[C@@H](C)C(N)=O [RXP407], the “Effect on blood pressure (in words)” value (ACE N-domain) is given as “no effect on blood pressure”.

In the case of C[C@H](CS)C(=O)N1CCC[C@H]1C(=O)O [captopril], the “Angiotensin I-induced elevation of blood pressure (in words)” value [5] is listed as “attenuated or abolished”, the “Decrease of SBP, intraperitoneal” value [2, 9] is listed as 52.83±19.06 mmHg and the “Decrease of SBP at 2 h (time course)” value ([2]; oral, 10 μmol/kg) is listed as “approximately 60 mmHg”. For the same molecule, the “SBP level lower than that of the blank group” value ([2]; oral, 10 mg/kg, SBP at 0 and 1 h, tail-cuff, mean ± standard error, n = 6) was 47.6 ± 4.34 mmHg.

For “AIDPVRA [oligopeptide derived from Caulerpa lentillifera]”, the “ACE inhibition (in words)” value (ACE; from Caulerpa lentillifera) is given as “ACE inhibitor”.

In the case of Ala-Tyr [AY], the “Maximal reduction of SBP” value (SHRs [6]; oral, 50 mg/kg, 2 h) is given as 9.5 mmHg and the IC50 (ACE; read-out: IC50, ACE) is given as 14.2 µM.

In the case of “FDGIP [oligopeptide derived from Caulerpa lentillifera]”, the “ACE inhibition (in words)” value (ACE; from Caulerpa lentillifera) is listed as “ACE inhibitor”.

In the case of GAAGGAF, the “Antihypertensive effect (in words)” value [7] is listed as “significant antihypertensive effect”.

In the case of “Ile-Pro-Pro [IPP, lacto-tripeptide from sour milk]”, the “Anti-hypertensive effect in SHRs (in words)” value (SHRs [6]) is given as “exhibit anti-hypertensive effects in SHRs”, the “ACE inhibition (in words)” value (ACE; sour milk peptides) is given as “inhibit the ACE activity” and the “Endothelial function (in words)” value (endothelial function) is given as “protect the endothelial function in vitro”. For the same molecule, the “Improvement in hypertension and side effects (in words)” value [8] was “mild improvement in hypertension without side effects”.

In the case of “Met-Ile/Leu-Pro-Pro [tetrapeptide from hydrolyzed zein]”, the “IC50, ACE in vitro” value (ACE) is listed as 70.32 µg/mL and the IC50 (ACE; read-out: IC50, ACE in vitro) is listed as 155 µM.

For “Val-Pro-Pro [VPP, lacto-tripeptide from sour milk]”, the “Anti-hypertensive effect in SHRs (in words)” value (SHRs [6]) is listed as “exhibit anti-hypertensive effects in SHRs”, the “ACE inhibition (in words)” value (ACE; sour milk peptides) is listed as “inhibit the ACE activity” and the “Endothelial function (in words)” value (endothelial function) is listed as “protect the endothelial function in vitro”. The “Improvement in hypertension and side effects (in words)” value [8] was “mild improvement in hypertension without side effects”.
